In US20240252474A1, “METHODS AND COMPOSITIONS COMPRISING A CARDIO-TOLERATED HDAC INHIBITOR” (HUYABIO International, LLC, priority 2023, published 2024):

Test: Phase 1b safety and tolerability of HBI-8000 combined with nivolumab (DLTs, TEAEs)
Type: in vivo
Experimental: The present example, was a Phase Ib/2 open-label dose finding study for HBI-8000 (also referred to in the art as “chidamide” or “tucidinostat” and also referred to herein as a compound of formula I) in combination with nivolumab in patients with advanced solid tumors, including melanoma, RCC (renal cell carcinoma), and NSCLC (non-small cell lung cancer). This study was conducted in accordance with Good Clinical Practice guidelines and the Declaration of Helsinki and with assurance/approval from the US Department of Health and Human Services; the protocol was approved by the institutional review boards or ethics committees of all participating sites. All patients provided written informed consent to participate before enrollment. […]
HBI-8000 at three dose levels (20 mg, 30 mg, and 40 mg) given orally twice a week (BIW) were evaluated. Doses were taken approximate 30 minutes after a meal. The starting dose (20 mg) was selected based on pharmacokinetic profiles established for monotherapy in Japanese patients with T-cell lymphoma.
The decision to escalate the dose was based on the conventional 3+3 design and observed incidences of dose-limiting toxicities (DLTs). Each treatment cycle was defined as 28 days. […] Subjects experiencing DLT within the first two weeks after having received 100% of assigned dose of HBI-8000 are also evaluable for DLT. Unacceptable toxicities were defined as grade 3 or higher non-hematologic and hematologic toxicities with clinical complications. Unacceptable toxicities observed over the first 28 days following HBI-8000 administration were considered as DLTs. […] HBI-8000 administration continued until disease progression or unacceptable toxicity was observed. The efficacy of the combination was further evaluated in an expanded cohort of selected patient populations at RP2D based on an objective response rate according to Response Evaluation Criteria in Solid Tumors (RECIST) version 1.1 criteria, progression-free survival, and duration of responses.
Safety evaluations included physical examinations, vital signs, ECGs, ECOG performance status, and laboratory tests.
Statistical analyses of safety, tolerability, and anti-tumor activity were primarily descriptive in nature. Toxicities were tabulated by type and grade. The safety population included all patients who received ≥1 dose of HBI-8000 and nivolumab. Continuous variables were summarized using descriptive statistics and categorical variables were summarized with number and percentage at each category. Pharmacokinetic parameters were derived using noncompartmental methods with Phoenix® WinNonlin® Version 6.4 (Certara, L. P., Princeton, NJ, USA).

[1] = 20 mg HBI-8000 BIW + nivolumab, N = 3
[2] = 30 mg HBI-8000 BIW + nivolumab, N = 7
[3] = 40 mg HBI-8000 BIW + nivolumab, N = 7

Nc1cc(F)ccc1NC(=O)c1ccc(CNC(=O)/C=C/c2cccnc2)cc1 [HBI-8000, N-(2-amino-4-fluorophenyl)-4-[[[(2E)-1-oxo-3-(3-pyridinyl)-2-propen-1-yl]amino]methyl]benzamide]
Alanine aminotransferase increased, All, G < 3 [1]: 1 (33) n (%) | Alanine aminotransferase increased, Related Both, Any G [1]: 1 (33) n (%) | Any SAE, number of subjects [1]: 1 n | Any TEAE, number of subjects [1]: 3 n | Aspartate aminotransferase increased, All, G < 3 [1]: 1 (33) n (%) | Aspartate aminotransferase increased, Related Both, Any G [1]: 1 (33) n (%) | Decreased appetite, All, G < 3 [1]: 1 (33) n (%) | Dehydration, All, G < 3 [1]: 1 (33) n (%) | Diarrhoea, All, G < 3 [1]: 2 (67) n (%) | Diarrhoea, Related Both, Any G [1]: 1 (33) n (%) | Dizziness, All, G < 3 [1]: 1 (33) n (%) | Dyspnoea, All, G < 3 [1]: 2 (67) n (%) | Dyspnoea, Related Both, Any G [1]: 1 (33) n (%) | Fatigue, All, G < 3 [1]: 2 (67) n (%) | Fatigue, All, G ≥ 3 [1]: 1 (33) n (%) | Fatigue, Related Both, Any G [1]: 1 (33) n (%) | Headache, All, G < 3 [1]: 1 (33) n (%) | Hypocalcaemia, All, G < 3 [1]: 1 (33) n (%) | Hypocalcaemia, All, G ≥ 3 [1]: 1 (33) n (%) | Hypokalaemia, All, G ≥ 3 [1]: 1 (33) n (%) | Nausea, All, G < 3 [1]: 2 (67) n (%) | Nausea, All, G ≥ 3 [1]: 1 (33) n (%) | Oedema peripheral, All, G < 3 [1]: 1 (33) n (%) | SAE related to HBI-8000 & Nivolumab, number of subjects [1]: 0 n | SAE related to HBI-8000 alone, number of subjects [1]: 0 n | TEAE related to HBI-8000 & Nivolumab, number of subjects [1]: 3 n | TEAE related to HBI-8000 alone, number of subjects [1]: 0 n | TEAE resulting in discontinuation of HBI-8000 alone, number of subjects [1]: 2 n | TEAE resulting in discontinuation of both HBI-8000 and Nivo, number of subjects [1]: 0 n | Vomiting, All, G < 3 [1]: 1 (33) n (%) | Weight decreased, All, G < 3 [1]: 1 (33) n (%) | Alanine aminotransferase increased, All, G < 3 [2]: 2 (29) n (%) | Alanine aminotransferase increased, Related Both, Any G [2]: 2 (29) n (%) | Anaemia, All, G < 3 [2]: 4 (57) n (%) | Anaemia, All, G ≥ 3 [2]: 1 (14) n (%) | Anaemia, Related Both, Any G [2]: 3 (43) n (%) | Any SAE, number of subjects [2]: 6 n | Any TEAE, number of subjects [2]: 7 n | Aspartate aminotransferase increased, All, G < 3 [2]: 2 (29) n (%) | Aspartate aminotransferase increased, Related Both, Any G [2]: 2 (29) n (%) | Atrial fibrillation, All, G < 3 [2]: 1 (14) n (%) | Back pain, All, G < 3 [2]: 4 (57) n (%) | Back pain, Related Both, Any G [2]: 1 (14) n (%) | Contusion, All, G < 3 [2]: 1 (14) n (%) | Contusion, Related Both, Any G [2]: 1 (14) n (%) | Decreased appetite, All, G < 3 [2]: 4 (57) n (%) | Decreased appetite, All, G ≥ 3 [2]: 1 (14) n (%) | Decreased appetite, Related Both, Any G [2]: 3 (43) n (%) | Decreased appetite, Related HBI, Any G [2]: 1 (14) n (%) | Dehydration, All, G < 3 [2]: 2 (29) n (%) | Dehydration, All, G ≥ 3 [2]: 1 (14) n (%) | Dehydration, Related Both, Any G [2]: 1 (14) n (%) | Diarrhoea, All, G < 3 [2]: 3 (43) n (%) | Diarrhoea, Related Both, Any G [2]: 3 (43) n (%) | Dizziness, All, G < 3 [2]: 2 (29) n (%) | Dizziness, Related Both, Any G [2]: 1 (14) n (%) | Dizziness, Related HBI, Any G [2]: 1 (14) n (%) | Dyspnoea, All, G < 3 [2]: 4 (57) n (%) | Dyspnoea, Related Both, Any G [2]: 1 (14) n (%) | Fall, All, G < 3 [2]: 2 (29) n (%) | Fall, Related Both, Any G [2]: 1 (14) n (%) | Fatigue, All, G < 3 [2]: 5 (71) n (%) | Fatigue, All, G ≥ 3 [2]: 1 (14) n (%) | Fatigue, Related Both, Any G [2]: 4 (57) n (%) | Headache, All, G < 3 [2]: 2 (29) n (%) | Headache, Related Both, Any G [2]: 1 (14) n (%) | Hypocalcaemia, All, G < 3 [2]: 3 (43) n (%) | Hypocalcaemia, Related Both, Any G [2]: 2 (29) n (%) | Hypokalaemia, All, G < 3 [2]: 2 (29) n (%) | Hypokalaemia, All, G ≥ 3 [2]: 1 (14) n (%) | Hypokalaemia, Related Both, Any G [2]: 1 (14) n (%) | Hypophosphataemia, All, G < 3 [2]: 3 (43) n (%) | Hypophosphataemia, All, G ≥ 3 [2]: 3 (43) n (%) | Hypophosphataemia, Related Both, Any G [2]: 2 (29) n (%) | Hypophosphataemia, Related HBI, Any G [2]: 1 (14) n (%) | Hypotension, All, G < 3 [2]: 1 (14) n (%) | Hypotension, All, G ≥ 3 [2]: 2 (29) n (%) | Hypotension, Related Both, Any G [2]: 1 (14) n (%) | Hypoxia, All, G < 3 [2]: 1 (14) n (%) | Hypoxia, All, G ≥ 3 [2]: 3 (43) n (%) | Hypoxia, Related Both, Any G [2]: 1 (14) n (%) | Lipase increased, All, G < 3 [2]: 3 (43) n (%) | Lipase increased, All, G ≥ 3 [2]: 4 (57) n (%) | Lipase increased, Related Both, Any G [2]: 2 (29) n (%) | Lymphocyte count decreased, All, G < 3 [2]: 3 (43) n (%) | Lymphocyte count decreased, All, G ≥ 3 [2]: 3 (43) n (%) | Lymphocyte count decreased, Related Both, Any G [2]: 2 (29) n (%) | Nausea, All, G < 3 [2]: 3 (43) n (%) | Nausea, Related HBI, Any G [2]: 1 (14) n (%) | Neutrophil count decreased, All, G < 3 [2]: 2 (29) n (%) | Neutrophil count decreased, All, G ≥ 3 [2]: 1 (14) n (%) | Neutrophil count decreased, Related Both, Any G [2]: 1 (14) n (%) | Neutrophil count decreased, Related HBI, Any G [2]: 1 (14) n (%) | Non-cardiac chest pain, All, G < 3 [2]: 2 (29) n (%) | Oedema peripheral, All, G < 3 [2]: 4 (57) n (%) | Oedema peripheral, All, G ≥ 3 [2]: 1 (14) n (%) | Oedema peripheral, Related Both, Any G [2]: 1 (14) n (%) | Oedema peripheral, Related HBI, Any G [2]: 1 (14) n (%) | Platelet count decreased, All, G < 3 [2]: 4 (57) n (%) | Platelet count decreased, Related Both, Any G [2]: 3 (43) n (%) | Platelet count decreased, Related HBI, Any G [2]: 1 (14) n (%) | Pleural effusion, All, G < 3 [2]: 3 (43) n (%) | Pleural effusion, Related Both, Any G [2]: 1 (14) n (%) | SAE related to HBI-8000 & Nivolumab, number of subjects [2]: 0 n | SAE related to HBI-8000 alone, number of subjects [2]: 0 n | TEAE related to HBI-8000 & Nivolumab, number of subjects [2]: 5 n | TEAE related to HBI-8000 alone, number of subjects [2]: 4 n | TEAE resulting in discontinuation of HBI-8000 alone, number of subjects [2]: 1 n | TEAE resulting in discontinuation of both HBI-8000 and Nivo, number of subjects [2]: 1 n | Vomiting, All, G < 3 [2]: 1 (14) n (%) | Vomiting, Related Both, Any G [2]: 1 (14) n (%) | Weight decreased, All, G < 3 [2]: 5 (71) n (%) | Weight decreased, Related Both, Any G [2]: 3 (43) n (%) | White blood cell count decreased, All, G < 3 [2]: 2 (29) n (%) | White blood cell count decreased, All, G ≥ 3 [2]: 1 (14) n (%) | White blood cell count decreased, Related Both, Any G [2]: 2 (29) n (%) | White blood cell count decreased, Related HBI, Any G [2]: 2 (29) n (%) | Alanine aminotransferase increased, All, G < 3 [3]: 1 (14) n (%) | Alanine aminotransferase increased, Related Both, Any G [3]: 1 (14) n (%) | Anaemia, All, G < 3 [3]: 4 (57) n (%) | Anaemia, All, G ≥ 3 [3]: 1 (14) n (%) | Anaemia, Related Both, Any G [3]: 1 (14) n (%) | Anaemia, Related HBI, Any G [3]: 2 (29) n (%)
